Patent US11801266B2, “Methods of using anti-MIR126 compounds” (CITY OF HOPE, priority 2019, dated 2023)

What was measured:
CML HSCs = assay: Cell cycling (EdU and DAPI) in human CML HSCs; type: cell-based; conditions: 500 nM, compared to CpG-scrRNA-treated controls
Method: (§1) After transduction performed as above, GFP+ cells selected at 48 h were exposed to NIL (2 μM and 5 μM, Novartis) for another 72 h, and analyzed using assays for cell growth, apoptosis, cell cycle, CFC and CFC replating. Human HSCs and mouse LT-HSCs were also treated with CpG-miR-126 inhibitor or CpG-scrRNA (500 nM), with or without NIL (5 μM), for 72 h and analyzed for cell growth, apoptosis, cell cycle and CFC. Human CML HSCs co-cultured with control or miR-126 KD HUVECs and mouse CML LT-HSCs co-cultured with control or miR-126 KD ECs for 96 h, with or without NIL (5 μM), were also analyzed for cell growth, apoptosis, cell cycle and CFC. Cell growth was measured by Lumino Glo (Promega). Apoptosis was measured by labeling cells with Annexin V-PE or FITC or APC and 4, 6-diamidino-2-phenylindole (DAPI) (all from BD-PharMingen, San Diego, Calif.) and analyzed by flow cytometry. Cell cycle was analyzed by Ki-67-Alexa Fluor 647 (B56, BD) and DAPI labeling based on the manufacturer's protocol. Cells were also exposed to EdU (C10640, Invitrogen) for 2 h and EdU staining was analyzed according to the manufacturer's protocol. Cell proliferation was also measured by CFSE staining (Molecular probes) based on the manufacturer's protocol. […]

WT B6 mice = assay: Hematologic toxicity in normal WT B6 mice
Method: (§2) We treated WT B6 mice with CpG-scrRNA (scrRNA) or CpG-miR-126 inhibitor (inhibitor, 5 mg/kg/day i.v.) for 3 weeks, after which we collected their BM cells and transplanted them into recipient mice (3×10^5 BM cells/mouse).
To determine the in vivo effect of the CpG-miR-126 inhibitor on normal hematopoiesis, normal mice were treated with scrRNA or inhibitor for 3 weeks, followed by assessment of WBC, RBC, PLT counts in PB and BM subpopulations in BM.

CML BM LT-HSCs = assay: Cell cycling in mouse CML BM LT-HSCs; type: cell-based; conditions: 500 nM, 72 h
Method: as §1

normal hematopoiesis = assay: Transplantation of BM cells from treated WT B6 mice into recipient mice; type: in vivo, mouse; conditions: recipients of BM cells from donor mice treated with scrRNA or inhibitor, 16 weeks after transplantation
Method: as §2

miR-126 = assay: In vivo miR-126 down-regulation in sorted LT-HSCs and ECs; design: species or system mouse; conditions: normal and CML mice, 5 mg/kg/day iv daily for 3 days; QPCR
Method: Next, we evaluated CpG-miR-126 inhibitor-Cy3 uptake in mouse LT-HSCs and ECs in vitro and in vivo. […]
To measure the miRNA and mRNA expression, total RNA was extracted using the miRNeasy Mini Kit (Qiagen, Valencia, Calif.). For miRNA expression, reverse transcription using MultiScribe™ Reverse Transcriptase and Q-PCR analysis using Taqman assays (Applied Biosystems) were performed according to the manufacturer's protocol. RNU44 and snoRNA234 was used as internal controls for human and mouse miRNA respectively. For mRNA expression, first-strand cDNA was synthesized using the SuperScript III First-Strand Kit and then QPCR was performed using TaqMan Gene Expression Assays (Thermo Fisher). BCR-ABL expression in human and mouse samples were measured with primer and probe sequences for BCR-ABL (B3A2 or B2A2), as previously described^46. Results are presented as log 2-transformed ratio according to the 2−ΔCt method (ΔCt=Ct of target−Ct of reference).

normal HSCs = assay: Cell cycling (EdU and DAPI) in human normal HSCs; type: cell-based; conditions: 500 nM, compared to CpG-scrRNA-treated controls
Method: as §1

normal BM LT-HSCs = assay: Cell cycling in mouse normal BM LT-HSCs; type: cell-based; conditions: 500 nM, 72 h
Method: as §1

CML LSCs = assay: In vivo treatment of CML mice (SCLtTA/BCR-ABL BM cells transplanted into congenic B6 mice); design: species or system mouse
Method: Next, we transplanted BM cells from SCLtTA/BCR-ABL mice (CD45.2) into congenic B6 mice (CD45.1). Following confirmation of CML development at 4 weeks after transplantation, mice were treated as above with scrRNA, inhibitor, scrRNA+NIL, or inhibitor+NIL for 3 weeks.

[1] = WT B6 mice, 5 mg/kg/day i.v. for 3 weeks, compared with scrRNA-treated control mice

Substance: 5′ G*G*T GCA TCG ATG CAGG*G*G* G*G xxxxx mCmGmC mAmUmU mAmUmU mAmCmU mCmAmC mGmGmU mAmCmG mA-3′ (GGTGCATCGATGCAGGGGGGCGCAUUAUUACUCACGGUACGA; CpG ODN, C3 linkers, phosphorothioate, 2'OMe; (1)..(2) phosphorothioation; (2)..(3) phosphorothioation; (16)..(17) phosphorothioation; (17)..(18) phosphorothioation; (18)..(19) phosphorothioation; (19)..(20) phosphorothioation; (20)..(21) Five C3 carbon chain linkers, ((CH2)3)5; modified_base (21)..(21) cm; modified_base (22)..(22) gm; modified_base (23)..(23) cm; modified_base (24)..(24) 2′-O-Methyladenosine; modified_base (25)..(26) um; mod) [CpG-miR-126 inhibitor, anti-miR-126 oligodeoxynucleotide linked to a CpG ODN (TLR9 ligand) by 5 C3 linker units; phosphothioated, 2′OMe-modified]
- cell cycling (CML HSCs): increased cell cycling
- numbers of ECs in the BM (WT B6 mice; [1]): no significant differences
- numbers of LT-HSCs in the BM (WT B6 mice; [1]): no significant differences
- numbers of WBCs in PB (WT B6 mice; [1]): no significant differences
- numbers of mononuclear cells in the BM (WT B6 mice; [1]): no significant differences
- numbers of platelets (PLT) in PB (WT B6 mice; [1]): no significant differences
- numbers of red blood cells (RBC) in PB (WT B6 mice; [1]): increased
- pre-clinical toxicity for normal hematopoiesis (WT B6 mice; overall conclusion, WT B6 mice treated for 3 weeks): lacks pre-clinical toxicity for normal hematopoiesis
- cell cycling (CML BM LT-HSCs): increased cell cycling
- donor LT-HSC numbers in BM (normal hematopoiesis): no significant differences
- donor cell engraftment in PB, BM or spleen (normal hematopoiesis): no significant differences
- miR-126 down-regulation in sorted LT-HSCs and ECs (miR-126): significant miR-126 down-regulation
- cell cycling (normal HSCs): increased cell cycling
- cell cycling (normal BM LT-HSCs): increased cell cycling
- miR-126 levels in total ECs, Sca-1+ECs and Sca-1-ECs from BM (CML LSCs; CML mice treated 3 weeks, compared with scrRNA-treated mice): significantly lower miR-126 levels
- mice that survived (CML LSCs; CML mice, 3 weeks of treatment, followed 60 days after treatment discontinuation): 50%
